Measured values published in patent US7208157B2, “Proteolysis targeting chimeric pharmaceutical” (California Institute of Technology, priority 2000, dated 2007).
Entries after “also recorded” stand apart in the source; their conditions may differ. One block for each compound: values may come before it. Where a SMILES comes first, the peptide text is derived from it. [ ]: non-standard residue; d: D form. Nle = CCCC[C@H](N)C(=O)O

Columns and labels:
[1] = molecular target: T1, MetAP-2 (Homo sapiens, UniProt P50579); experiment: Degradation experiments with Xenopus egg extracts; format: biochemical, Xenopus laevis
Procedure: Extracts from unfertilized Xenopus laevis eggs were prepared the day of the experiment, as described (See Murray, A. W., Methods Cell Biol., 3:581–605 (1991)). The MetAP-2-Protac-1 mixture (4 μl of 9 μM MetAP-2 plus 50 μMProtac-1) or MetAP-2 alone was added to […] of extract in addition to OVA (10 μM final), constitutively active IKK (IKK-EE, 0.4 μg), and okadaic acid (OA; 10 μM final). N-acetyl-leu-leu-norleucinal (LLnL, 50 μM final), epoxomicin (10 μM final), or DMSO vehicle were added to the indicated concentrations to inhibit degradation by the proteasome. The protease inhibitors chymostatin, pepstatin, and leupeptin ([…] final concentration) also were added to the extracts. Reactions were incubated for the indicated times at room temperature and terminated by adding 50 μl of SDS/PAGE loading buffer. Samples were evaluated by Western blotting as described above.
However, the key issues are whether Protac-1 can specifically activate MetAP-2 degradation, and whether targeted degradation can be achieved by endogenous ubiquitin/proteasome pathway components at typical intracellular concentrations. To address these questions, MetAP-2 was preincubated with Protac-1 to allow the complexes to form, and then added the mixture to Xenopus egg extract supplemented with IKK-EE (See Mercurio, F., Zhu, et al., Science,. 278:860–66. (1997)), OA, and OVA. The addition of IKK-EE and OA was intended to sustain phosphorylation of the IkBa peptide moiety of Protac-1, whereas OVA was added to prevent the further linkage of Protac-1 to MetAP-2. […] Moreover, addition of both IKK-EE and OA was required for optimal degradation of MetAP-2-Protac-1. Similarly, we have seen specific turnover of the MetAP-2-Protac-1complex, but not free MetAP-2, in three independent experiments. […] MetAP-2 turnover was very specific, in that maximal degradation required agents predicted to sustain phosphorylation of the LkBa peptide.

[2] = molecular target: T1, MetAP-2; settings: covalent, active site His-231; cited from earlier work
[3] = molecular target: T2, SCF^β-TRCP (Homo sapiens, UniProt Q9Y297); experiment: Control ubiquitination of IKK-phosphorylated glutathione S-transferase-IkBalpha by SCFβ-TRCP immunoprecipitates; format: biochemical; parameters: made in house; host or cells: 293T cells, transient transfection, anti-FLAG immunoprecipitation; settings: anti-FLAG SCFβ-TRCP immunoprecipitates; data not shown
Excerpt: Before testing the activity of Protac-1, an approach to isolate and assay SCF^β-TRCP complexes in vitro as described (See Tan, P., et al., Mol. Cell, 3:327–33 (1999)) was first adapted. Lysates from 293T cells transfected with plasmids that encoded β-TRCP and Cul-1 proteins tagged with the FLAG epitope at the N terminus were immunoprecipitated with anti-FLAG antibody-conjugated resin. Immunoblot analysis confirmed that all components of SCF^β-TRCP were present in the anti-FLAG immunoprecipitate, including Skp 1, Hrt 1, and the transfected FLAG Cul-1 and FLAG β-TRCP (data not shown). Furthermore, control experiments confirmed that these immunoprecipitates promoted ubiquitination of IKK-phosphorylated glutathione S-transferase-LkBalpha in a manner that was inhibited by the IPP and Protac-1 (data not shown; ref. 7). To determine whether Protac-1 could recruit MetAP-2 to SCF^β-TRCP , MetAP-2 (18 μM) was first incubated with Protac-1 (100 μM) for 45 mm at room temperature. After isolation of SCF^β-TRCP complexes, the anti-FLAG beads were supplemented with the MetAP-2-Protac-l mixture and rotated at room temperature for 1 hr. The beads and supernatant then were evaluated by Western blot analysis for the presence of MetAP-2. […]
Target sequence in this assay (Q9Y297 whole entry): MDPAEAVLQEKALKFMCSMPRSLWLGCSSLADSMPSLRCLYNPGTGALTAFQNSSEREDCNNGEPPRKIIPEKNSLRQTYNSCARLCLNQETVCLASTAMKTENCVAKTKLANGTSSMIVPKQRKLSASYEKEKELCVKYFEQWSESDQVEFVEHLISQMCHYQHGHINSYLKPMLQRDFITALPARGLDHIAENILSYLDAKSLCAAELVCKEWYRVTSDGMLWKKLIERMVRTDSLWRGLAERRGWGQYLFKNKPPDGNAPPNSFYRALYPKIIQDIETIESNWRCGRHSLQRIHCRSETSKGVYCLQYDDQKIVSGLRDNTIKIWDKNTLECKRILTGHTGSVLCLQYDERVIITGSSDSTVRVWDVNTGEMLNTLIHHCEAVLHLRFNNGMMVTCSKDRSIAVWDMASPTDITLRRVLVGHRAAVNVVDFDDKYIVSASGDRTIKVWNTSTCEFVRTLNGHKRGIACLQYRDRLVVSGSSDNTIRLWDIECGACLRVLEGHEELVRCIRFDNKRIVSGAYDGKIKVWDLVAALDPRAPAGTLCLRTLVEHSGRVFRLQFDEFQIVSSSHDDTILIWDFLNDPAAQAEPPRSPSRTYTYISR
Target sequence in this assay (Q13616 whole entry partner): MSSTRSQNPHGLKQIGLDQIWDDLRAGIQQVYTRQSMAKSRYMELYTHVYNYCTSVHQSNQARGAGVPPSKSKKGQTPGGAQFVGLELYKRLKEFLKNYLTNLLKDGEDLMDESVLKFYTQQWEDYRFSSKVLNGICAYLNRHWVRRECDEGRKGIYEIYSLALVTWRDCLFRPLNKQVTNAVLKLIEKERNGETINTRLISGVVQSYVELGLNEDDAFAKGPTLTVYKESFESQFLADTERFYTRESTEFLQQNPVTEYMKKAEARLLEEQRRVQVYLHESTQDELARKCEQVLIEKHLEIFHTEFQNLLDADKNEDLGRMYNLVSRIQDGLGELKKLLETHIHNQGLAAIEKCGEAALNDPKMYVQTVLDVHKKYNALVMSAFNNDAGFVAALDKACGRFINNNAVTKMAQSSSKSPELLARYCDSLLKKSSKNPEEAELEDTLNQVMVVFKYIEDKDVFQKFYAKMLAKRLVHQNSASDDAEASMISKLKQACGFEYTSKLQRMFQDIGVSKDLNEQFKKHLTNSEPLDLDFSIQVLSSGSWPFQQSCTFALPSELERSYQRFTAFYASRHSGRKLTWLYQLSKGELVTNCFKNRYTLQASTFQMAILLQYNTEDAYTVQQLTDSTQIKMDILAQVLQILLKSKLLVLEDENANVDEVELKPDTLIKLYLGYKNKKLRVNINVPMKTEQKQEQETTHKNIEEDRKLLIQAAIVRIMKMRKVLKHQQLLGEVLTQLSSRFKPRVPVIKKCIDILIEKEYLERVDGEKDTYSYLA
Target sequence in this assay (P63208 2-163 partner limits assumed): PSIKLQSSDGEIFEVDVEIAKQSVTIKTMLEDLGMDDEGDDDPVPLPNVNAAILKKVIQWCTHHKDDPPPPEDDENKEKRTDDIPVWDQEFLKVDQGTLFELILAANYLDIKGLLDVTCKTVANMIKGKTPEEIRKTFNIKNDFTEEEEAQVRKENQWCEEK
Target sequence in this assay (P62877 whole entry partner): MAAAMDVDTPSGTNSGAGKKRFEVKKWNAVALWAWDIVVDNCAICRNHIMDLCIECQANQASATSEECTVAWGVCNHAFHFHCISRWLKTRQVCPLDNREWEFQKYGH

[4] = molecular target: T1, MetAP-2; experiment: MetAP-2-Protac-1 coupling assay (SDS/PAGE, anti-MetAP-2 immunoblot); format: binding; settings: MetAP-2 incubated with increasing Protac-1, or free IPP (50 μM) or free OVA (50 μM), room temperature 45 min
Procedure: MetAP-2 (9 μM) was incubated with increasing concentrations of Protac-1 (dissolved in water) at room temperature for 45 min. Reactions were supplemented with SDS loading dye, fractionated on an SDS/10% polyacryl-amide gel, transferred onto a nitrocellulose membrane, and immunoblotted with rabbit polyclonal anti-MetAP-2 antiserum (Zymed). Enhanced chemiluminescence was performed by using Amersham Pharmacia detection reagents.
The IkBalpha-OVA chimera, Protac-1 (FIG. 1B), was synthesized as described above. […] A Western blot analysis was performed with anti-MetAP-2 antiserum. […] The specificity of MetAP-2 interaction with Protac-1 in vitro was also tested.

[5] = test system: MetAP-2; experiment: In vitro ubiquitination of MetAP-2 by SCFβ-TRCP beads with E1, E2 (Cdc34), ubiquitin, ATP; format: biochemical; settings: 1 hr at 30° C.; 47-kDa and 67-kDa MetAP-2 preparations; Western blot
Procedure: Pellets from cells transfected with vector, pFLAG-β-TRCP, or pFLAG-Cul-1 were vortexed for 10 sec, then incubated on ice for 15 min. After centrifugation at 13,000 rpm in an Eppendorf microfuge (Germany) for 5 min at 4° C., the supernatant was added to 20 μl of FLAG M2 beads (Sigma), which were washed with lysis buffer three times before immu-noprecipitation. Lysates were incubated with the beads on a rotator for 2 hr at 4° C., followed by one wash with buffer A (25 mM Hepes buffer, pH 7.4/0.01% Triton X-100/150 mM NaCl) and one wash with buffer B (the same buffer without the Triton X-100). […] After the addition of ligand, the beads were rotated at room temperature for 1 hr. The beads were washed once each with buffers A and B. After centrifugation at 13,000 rpm in an Eppendorf microfuge (Germany) for 1 min, half of the bead and supernatant fractions, representing bound and unbound, respectively, were evaluated by Western blotting as described above. For ubiquitination reactions, 4 μl of 18 μM MetAP-2, 4 μl of 100 μM Protac-1, 0.5 ml of 0.1 μg/μl purified mouse E1, 1 μl of 0.5 μg/μl human Cdc34 E2, and 1 μl of 25 mM ATP were added to 20 μl (packed volume) of washed FLAG-M2 beads. […] SDS/PAGE loading buffer was added to terminate reactions, which were evaluated by Western blotting as described above. […]

[6] = molecular target: T2, SCF^β-TRCP; experiment: Binding assay: recruitment of MetAP-2 to SCFβ-TRCP beads; parameters: made in house; settings: MetAP-2 (18 μM) preincubated with Protac-1 (100 μM) 45 min; beads 1 hr room temperature; vs control beads
Procedure: 293T cell pellets were lysed with 200 μl of lysis buffer (25 mMTris/Cl, pH 7.5/150 mM NaCl/0.1% Triton X-100/5 mM NaF/0.05 mM EGTA/1 mM PMSF). Pellets from cells transfected with vector, pFLAG-β-TRCP, or pFLAG-Cul-1 were vortexed for 10 sec, then incubated on ice for 15 min. After centrifugation at 13,000 rpm in an Eppendorf microfuge (Germany) for 5 min at 4° C., the supernatant was added to 20 μl of FLAG M2 beads (Sigma), which were washed with lysis buffer three times before immu-noprecipitation. […] The beads were washed once each with buffers A and B. After centrifugation at 13,000 rpm in an Eppendorf microfuge (Germany) for 1 min, half of the bead and supernatant fractions, representing bound and unbound, respectively, were evaluated by Western blotting as described above. […] SDS/PAGE loading buffer was added to terminate reactions, which were evaluated by Western blotting as described above.
Before testing the activity of Protac-1, an approach to isolate and assay SCF^β-TRCP complexes in vitro as described (See Tan, P., et al., Mol. Cell, 3:327–33 (1999)) was first adapted. […] The beads and supernatant then were evaluated by Western blot analysis for the presence of MetAP-2. […]
Target sequence in this assay (Q9Y297 whole entry): as the sequence (Q9Y297 whole entry) above
Target sequence in this assay (Q13616 whole entry partner): as the sequence (Q13616 whole entry partner) above
Target sequence in this assay (P63208 2-163 partner limits assumed): as the sequence (P63208 2-163 partner limits assumed) above
Target sequence in this assay (P62877 whole entry partner): as the sequence (P62877 whole entry partner) above
Target sequence in this assay (P50579 whole entry, further chain): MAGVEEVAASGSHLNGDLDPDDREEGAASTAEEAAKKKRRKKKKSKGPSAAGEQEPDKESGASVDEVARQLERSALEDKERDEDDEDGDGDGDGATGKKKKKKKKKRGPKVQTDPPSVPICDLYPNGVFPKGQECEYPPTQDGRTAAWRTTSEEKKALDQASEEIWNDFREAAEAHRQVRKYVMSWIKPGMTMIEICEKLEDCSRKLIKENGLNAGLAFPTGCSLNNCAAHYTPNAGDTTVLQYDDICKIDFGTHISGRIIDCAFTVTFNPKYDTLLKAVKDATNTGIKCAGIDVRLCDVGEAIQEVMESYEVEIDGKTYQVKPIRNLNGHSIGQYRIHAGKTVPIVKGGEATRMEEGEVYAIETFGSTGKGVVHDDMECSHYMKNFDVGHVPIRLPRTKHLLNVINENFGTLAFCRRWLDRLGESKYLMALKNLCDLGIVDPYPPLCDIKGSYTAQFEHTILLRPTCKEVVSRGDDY

T1 sequence (P50579 whole entry, species assumed): as the sequence (P50579 whole entry, further chain) above
T1 sequence (P50579 110-478 limits assumed): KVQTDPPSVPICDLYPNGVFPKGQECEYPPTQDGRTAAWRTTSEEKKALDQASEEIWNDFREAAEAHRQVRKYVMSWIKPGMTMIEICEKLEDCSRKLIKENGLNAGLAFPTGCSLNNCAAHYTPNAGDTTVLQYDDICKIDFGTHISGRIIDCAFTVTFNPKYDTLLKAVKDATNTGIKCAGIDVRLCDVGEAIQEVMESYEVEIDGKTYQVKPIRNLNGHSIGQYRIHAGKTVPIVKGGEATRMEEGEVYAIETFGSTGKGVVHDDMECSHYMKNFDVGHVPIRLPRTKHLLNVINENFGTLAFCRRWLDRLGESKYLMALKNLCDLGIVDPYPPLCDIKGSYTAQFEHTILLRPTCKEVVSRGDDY

Compound: CC[C@H](C)[C@H](NC(=O)[C@H]([C@@H](C)CC)N(C)C(C)=O)C(=O)N[C@H](C(=O)N[C@@H](CC(C)C)C(=O)[C@@]1(C)CO1)[C@@H](C)O [epoxomicin]
effect on degradation of MetAP-2-Protac-1 ([1]; epoxomicin 10 μM final added to extract): attenuated

Compound: CO[C@@H]1[C@H](OC(=O)/C=C/C=C/C=C/C=C/C(=O)O)CC[C@]2(CO2)[C@H]1[C@@]1(C)O[C@@H]1CC=C(C)C [fumagillin]
inhibition of MetAP-2 [2]: inhibit MetAP-2 by covalently binding His-231 in the active site

Compound: CCCC[C@@H](C=O)NC(=O)[C@H](CC(C)C)NC(=O)[C@H](CC(C)C)NC(C)=O [LLnL, N-acetyl-leu-leu-norleucinal] (Ac-Leu-Leu-[Nle]-aldehyde)
effect on degradation of MetAP-2-Protac-1 ([1]; LLnL 50 μM final added to extract): attenuated

inhibition of ubiquitination of IKK-phosphorylated GST-IkBalpha [3]: inhibited
Compound: IkBa peptide-suberate-Gly-ovalicinol [Protac-1]
formation of MetAP-2-Protac-1 complex (upper band / doublet on anti-MetAP-2 Western blot) [4]: specifically conjugated to the OVA moiety of Protac-1 in a concentration-dependent manner | formation of MetAP-2-Protac-1 complex (upper band / doublet on anti-MetAP-2 Western blot) ([4]; listed as Protac): MetAP-2 binds Protac specifically and in a concentration-dependent manner | ubiquitination of MetAP-2 by SCFβ-TRCP [5]: specifically elicited ubiquitination of MetAP-2 by SCF^β-TRCP; also recorded: ubiquitinated in the presence of Protac-1 | degradation of MetAP-2-Protac-1 complex ([1]; Xenopus egg extract with IKK-EE, OA and OVA, room temperature, MetAP-2 alone not degraded): mostly degraded after 30 mm; also recorded: degraded by proteasomes in Xenopus extracts | recruitment of MetAP-2 to SCFβ-TRCP beads [6]: specifically recruited MetAP-2 to SCF^β-TRCP
